Measurements taken from the supplement of paper PMC10307832.

The cell lines below were run with Cc1ccc(NC(=O)c2ccc(CN3CCN(C)CC3)cc2)cc1Nc1nc(-c2cccnc2)cs1 [Masitinib] + COc1cccc2cc(-c3nc([C@H]4CC[C@H](C(=O)O)CC4)n4ncnc(N)c34)[nH]c12 [OSI-027] (partner 0.5 µM) (assay: relative viability (nuclei count vs DMSO), 5 days (fraction); higher = more cells survive). Settings: first compound 0.01 µM.
Procedure, shortened: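 Nuclei were stained with Hoechst during a one-step fixation (final 0.05% Triton X-100, 1% formaldehyde, 1 ug/ml Hoechst) carried out 5 days after dosing, then counted on 4× images. The cells, lung cancer lines in 1536-well plates, had been dosed by pin tool the day after seeding with one drug alone or a fixed anchor-drug dose plus five library-drug doses (not always all listed) in √10 steps. Relative viability is the nuclei count in treated wells divided by that in vehicle wells, and each value is the median of duplicate plates.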

| Cell Line | relative viability |
| --- | --- |
| NCI-H1651 | 0.735 |
| NCI-H1734 | 0.668 |
| NCI-H2009 | 0.591 |
| LU99A | 0.257 |
| PC-14 | 0.887 |
| LCLC-103H | 0.412 |
| NCI-H596 | 0.87 |
| NCI-H2228 | 0.633 |
| EMC-BAC-2 | 0.379 |
| NCI-H2087 | 0.627 |
| NCI-H647 | 0.685 |
| LK-2 | 0.194 |
| NCI-H2126 | 0.697 |
| NCI-H2342 | 0.637 |
| NCI-H1793 | 0.318 |
| H3255 | 0.588 |
| COR-L23 | 0.893 |
| COR-L 105 | 0.682 |
| LOU-NH91 | 0.702 |
| ChaGo-K-1 | 0.779 |
| NCI-H358 | 0.85 |
| HOP-62 | 0.759 |
| HCC-44 | 0.526 |
| SW 900 | 0.654 |
| NCI-H1648 | 0.272 |
| NCI-H441 | 0.654 |
| NCI-H1395 | 0.647 |
| NCI-H1650 | 0.58 |
| NCI-H2170 | 0.701 |

Same assay, conditions: first compound 0.03162 µM

| Cell Line | relative viability |
| --- | --- |
| NCI-H1623 | 0.507 |
| NCI-H838 | 0.331 |
| NCI-H1651 | 0.656 |
| NCI-H1734 | 0.625 |
| NCI-H2009 | 0.654 |
| LU99A | 0.331 |
| PC-14 | 0.794 |
| LCLC-103H | 0.526 |
| NCI-H596 | 0.678 |
| NCI-H2228 | 0.661 |
| EMC-BAC-2 | 0.381 |
| NCI-H2087 | 0.628 |
| HCC-366 | 1 |
| NCI-H647 | 0.651 |
| LK-2 | 0.214 |
| NCI-H2126 | 0.727 |

| Cell Line | relative viability |
| --- | --- |
| NCI-H2342 | 0.58 |
| NCI-H1793 | 0.205 |
| H3255 | 0.652 |
| COR-L23 | 0.737 |
| COR-L 105 | 0.705 |
| LOU-NH91 | 0.667 |
| ChaGo-K-1 | 0.537 |
| NCI-H358 | 0.762 |
| NCI-H3122 | 1.38 |
| HOP-62 | 0.866 |
| HCC-44 | 0.497 |
| SW 900 | 0.443 |
| NCI-H441 | 0.628 |
| NCI-H1395 | 0.609 |
| NCI-H1650 | 0.478 |
| NCI-H2170 | 0.75 |

Same assay, conditions: first compound 0.1 µM

| Cell Line | relative viability |
| --- | --- |
| NCI-H522 | 0.781 |
| NCI-H1623 | 0.447 |
| NCI-H838 | 0.385 |
| NCI-H1651 | 0.695 |
| NCI-H1734 | 0.599 |
| NCI-H2009 | 0.646 |
| LU99A | 0.311 |
| PC-14 | 0.822 |
| LCLC-103H | 0.414 |
| NCI-H596 | 0.73 |
| NCI-H2228 | 0.638 |
| EMC-BAC-2 | 0.379 |
| NCI-H2087 | 0.743 |
| NCI-H647 | 0.699 |
| LK-2 | 0.198 |
| NCI-H2126 | 0.653 |

| Cell Line | relative viability |
| --- | --- |
| NCI-H2342 | 0.696 |
| NCI-H1793 | 0.285 |
| H3255 | 0.617 |
| COR-L23 | 0.776 |
| COR-L 105 | 0.764 |
| LOU-NH91 | 0.723 |
| ChaGo-K-1 | 0.603 |
| NCI-H358 | 0.859 |
| HOP-62 | 0.923 |
| HCC-44 | 0.531 |
| SW 900 | 0.627 |
| NCI-H1648 | 0.236 |
| NCI-H441 | 0.798 |
| NCI-H1395 | 0.71 |
| NCI-H1650 | 0.719 |
| NCI-H2170 | 0.791 |

Same assay, conditions: first compound 0.3162 µM

| Cell Line | relative viability |
| --- | --- |
| NCI-H522 | 0.781 |
| NCI-H1623 | 0.318 |
| NCI-H838 | 0.342 |
| NCI-H1651 | 0.824 |
| NCI-H1734 | 0.568 |
| NCI-H2009 | 0.616 |
| LU99A | 0.316 |
| PC-14 | 0.875 |
| LCLC-103H | 0.459 |
| NCI-H596 | 0.717 |
| NCI-H2228 | 0.807 |
| EMC-BAC-2 | 0.379 |
| NCI-H2087 | 0.481 |
| HCC-366 | 0.792 |
| NCI-H647 | 0.579 |
| LK-2 | 0.201 |
| NCI-H2126 | 0.602 |

| Cell Line | relative viability |
| --- | --- |
| NCI-H2342 | 0.592 |
| NCI-H1793 | 0.28 |
| H3255 | 0.504 |
| COR-L23 | 0.751 |
| COR-L 105 | 0.613 |
| LOU-NH91 | 0.58 |
| ChaGo-K-1 | 0.695 |
| NCI-H358 | 0.665 |
| NCI-H3122 | 0.969 |
| HOP-62 | 0.929 |
| HCC-44 | 0.392 |
| SW 900 | 0.527 |
| NCI-H1648 | 0.268 |
| NCI-H441 | 0.717 |
| NCI-H1395 | 0.563 |
| NCI-H1650 | 0.499 |
| NCI-H2170 | 0.606 |

Same assay, conditions: first compound 1 µM

| Cell Line | relative viability |
| --- | --- |
| NCI-H522 | 0.698 |
| NCI-H1623 | 0.367 |
| NCI-H838 | 0.394 |
| NCI-H1651 | 0.706 |
| NCI-H1734 | 0.544 |
| NCI-H2009 | 0.606 |
| LU99A | 0.29 |
| PC-14 | 0.826 |
| LCLC-103H | 0.404 |
| NCI-H596 | 0.697 |
| NCI-H2228 | 0.528 |
| EMC-BAC-2 | 0.354 |
| NCI-H2087 | 0.437 |
| HCC-366 | 0.78 |
| NCI-H647 | 0.602 |
| LK-2 | 0.243 |
| NCI-H2126 | 0.657 |

| Cell Line | relative viability |
| --- | --- |
| NCI-H2342 | 0.593 |
| NCI-H1793 | 0.254 |
| H3255 | 0.538 |
| COR-L23 | 0.738 |
| COR-L 105 | 0.533 |
| LOU-NH91 | 0.655 |
| ChaGo-K-1 | 0.538 |
| NCI-H358 | 0.731 |
| NCI-H3122 | 1.09 |
| HOP-62 | 0.837 |
| HCC-44 | 0.59 |
| SW 900 | 0.482 |
| NCI-H1648 | 0.254 |
| NCI-H441 | 0.429 |
| NCI-H1395 | 0.623 |
| NCI-H1650 | 0.543 |
| NCI-H2170 | 0.726 |
